Our source for the Hepatotoxicity values is ChEMBL document CHEMBL1697692, “Developing structure-activity relationships for the prediction of hepatotoxicity” (Chem Res Toxicol, 2010).

This data set concerns Hepatotoxicity. Nature of the data set: Literature-mined public compounds from Greene et al multi-species hepatotoxicity modelling dataset.

Numbered stars: 1 amine (or outer) side, 2 acyl side, 3 side chain; on linkers, the order of the positions; unused ones are H or OH. Bridge positions count the residues as written; N and C are the ends. Square brackets hold non-standard residues; d marks the D form. Peptide text beside a SMILES is read from it. * marks the point of attachment. ξ: configuration not given here. X1 = N=C1NCCC([C@H](N[*:1])C(=O)[*:2])N1; ΔAla(Z-3-ureido) = NC(=O)N/C=C(\N)C(=O)O; ξβ3hOrn = NCCCC(N)CC(=O)*; Dap = NC[C@H](N)C(=O)O

On to `CC(C)(Oc1ccc(CCNC(=O)c2ccc(Cl)cc2)cc1)C(=O)O` [BEZAFIBRATE], for which the Hepatotoxicity result is recorded as “NE: No evidence of hepatotoxicity in any species”.
With `CC(O)(CS(=O)(=O)c1ccc(F)cc1)C(=O)Nc1ccc(C#N)c(C(F)(F)F)c1` (configuration not stated) [BICALUTAMIDE], the Hepatotoxicity result was “HH: Evidence of human hepatotoxicity”.
With `O=C(O)CCCC[C@@H]1SC[C@@H]2NC(=O)N[C@@H]21` [BIOTIN] the entry was “NE: No evidence of hepatotoxicity in any species”.
Regarding `CCCC[C@@H](CC)COC(=O)c1ccccc1C(=O)OC[C@@H](CC)CCCC` [BIS(2-ETHYLHEXYL)PHTHALATE], the Hepatotoxicity entry is “AH: Evidence for animal hepatotoxicity but not tested in humans”.
As to `Oc1c(Cl)cc(Cl)cc1Sc1cc(Cl)cc(Cl)c1O` [BITHIONOL], the Hepatotoxicity entry is “HH: Evidence of human hepatotoxicity”.
Turning to `COc1ccccc1Oc1c(NS(=O)(=O)c2ccc(C(C)(C)C)cc2)nc(-c2ncccn2)nc1OCCO` [BOSENTAN], the Hepatotoxicity result is on record as “HH: Evidence of human hepatotoxicity”.
`Nc1c(CC(=O)O)cccc1C(=O)c1ccc(Br)cc1` [BROMFENAC]: the Hepatotoxicity result is reported as “HH: Evidence of human hepatotoxicity”.
With `Brc1ccccc1` [BROMOBENZENE] the entry was “HH: Evidence of human hepatotoxicity”; with `NCCBr` [BROMOETHANAMINE], “AH: Evidence for animal hepatotoxicity but not tested in humans”.
As for `CN(C)CCC(c1ccc(Br)cc1)c1ccccn1.O=C(O)/C=C\C(=O)O` (configuration not stated) [BROMPHENIRAMINE MALEATE], the Hepatotoxicity entry is “NE: No evidence of hepatotoxicity in any species”.
`CCCCNc1cc(C(=O)O)cc(S(N)(=O)=O)c1Oc1ccccc1` [BUMETANIDE]: the Hepatotoxicity result is given as “HH: Evidence of human hepatotoxicity”.
Turning to `CCCCN1CCCCC1C(=O)Nc1c(C)cccc1C` (configuration not stated) [BUPIVACAINE], the Hepatotoxicity entry is recorded as “NE: No evidence of hepatotoxicity in any species”.
`CC(NC(C)(C)C)C(=O)c1cccc(Cl)c1.Cl` (configuration not stated) [BUPROPION HYDROCHLORIDE]: the Hepatotoxicity result is “WE: Weak evidence (<10 case reports) of human hepatotoxicity”.
As for `O=C1CC2(CCCC2)CC(=O)N1CCCCN1CCN(c2ncccn2)CC1` [BUSPIRONE], the Hepatotoxicity result is on record as “NE: No evidence of hepatotoxicity in any species”.
Then `CS(=O)(=O)OCCCCOS(C)(=O)=O` [BUSULFAN], with “HH: Evidence of human hepatotoxicity”; and `Clc1ccc(CCC(Cn2ccnc2)Sc2c(Cl)cccc2Cl)cc1.O=[N+]([O-])O` (configuration not stated) [BUTOCONAZOLE NITRATE], with “NE: No evidence of hepatotoxicity in any species”; and `Cc1cc(C(C)(C)C)c(O)c(C(C)(C)C)c1` [BUTYLATED HYDROXYTOLUENE], with “AH: Evidence for animal hepatotoxicity but not tested in humans”.
Turning to `Cn1c(=O)c2c(ncn2C)n(C)c1=O` [CAFFEINE], the Hepatotoxicity entry was “NE: No evidence of hepatotoxicity in any species”.
With `C=C1CC[C@H](O)C/C1=C/C=C1\CCC[C@]2(C)[C@@H]([C@H](C)CCCC(C)(C)O)CC[C@@H]12.O` [CALCIFEDIOL] the entry was “HH: Evidence of human hepatotoxicity”; with `CC(C)(CO)[C@@H](O)C(=O)NCCC(=O)[O-].CC(C)(CO)[C@@H](O)C(=O)NCCC(=O)[O-].[Ca+2]` [CALCIUM PANTOTHENATE], “NE: No evidence of hepatotoxicity in any species”.
With `C[C@@H]1NC(=O)[C@@H](N)CNC(=O)[C@H](C2CCNC(=N)N2)NC(=O)/C(=C/NC(N)=O)NC(=O)[C@H](CNC(=O)CC(N)CCCN)NC1=O.N=C1NCCC([C@@H]2NC(=O)/C(=C/NC(N)=O)NC(=O)[C@H](CNC(=O)CC(N)CCCN)NC(=O)[C@H](CO)NC(=O)[C@@H](N)CNC2=O)N1.O=S(=O)(O)O.O=S(=O)(O)O` (stereo partly drawn) [CAPREOMYCIN SULFATE] (H-[Dap]S[Dap](ξβ3hOrn)[ΔAla(Z-3-ureido)][X1]; lactam 1-C), the Hepatotoxicity entry was “NE: No evidence of hepatotoxicity in any species”.
For the molecule `COc1cc(CNC(=O)CCCC/C=C/C(C)C)ccc1O` [CAPSAICIN], the Hepatotoxicity entry was “NE: No evidence of hepatotoxicity in any species”.
